Results taken from paper PMC4502414, “Transforming berberine into its intestine-absorbable form by the gut microbiota” (Scientific Reports, 2015).

Legend:
[1] = tested on: rat large intestinal bacteria (RLIB); experiment: Conversion of BBR into dhBBR by rat large intestinal bacteria in vitro; assay type: in vitro ADME; settings: BBR incubated with rat large intestinal bacteria
Description: The method was reported previously. Briefly, colon contents from six rats were pooled, and 5 g of the sample was transferred into a flask containing the anaerobic medium (100 ml). After thorough mixing, the cultures (which contained intestinal bacteria and anaerobic medium) were pre-incubated under anaerobic conditions with a N2 atmosphere at 37 °C for 60 min. Rutin (10 μl, 1.0 mg/ml in methanol) was used as a positive reference for intestinal metabolism.
Ten microliters of BBR at different concentrations was added into the fresh human or rat intestinal bacteria cultures (990 μl), with methanol (10 μl) as the negative control. The final concentrations of BBR in the incubation system were 100, 10, and 5 μg/ml. The cultures were incubated at 37 °C for 72 h in the presence or absence of human or rat intestinal bacteria.
After termination of the reaction with acetonitrile (1 ml), 50 μl of the internal standard (tetrahydropalmatine, 2.0 mg/ml in methanol) was added into the BBR samples, which were then mixed for 30 sec and centrifuged at 7,500 g for 15 min. The supernatant was dried under nitrogen flow at room temperature, and the residue was dissolved in 100 μl of methanol and centrifuged at 7,500 g for 15 min. The metabolites were analyzed by LC/MS^n-IT-TOF using a previously reported method. […]

[2] = tested on: rat small intestinal bacteria (RSIB); experiment: Conversion of BBR into dhBBR by rat small intestinal bacteria in vitro; assay type: in vitro ADME; settings: BBR incubated with rat small intestine bacteria
Description: The small intestine contents from ten sacrificed SD rats were obtained and mixed with anaerobic medium to prepare the cultures. BBR was added into the incubation at final concentrations of 100, 50, and 10 μg/ml, and the reaction was continued for 6, 12 or 24 h. Levels of BBR, dhBBR and other BBR metabolites were determinedusing the LC-MS/MS 8040 and GC-MS instruments according to the above-mentioned method.

[3] = tested on: 17 intestinal bacteria; experiment: Anti-bacterial test (MIC, broth microdilution); assay type: cell-based; settings: 17 intestinal bacteria strains, 24 h
Description: Seventeen bacterial strains (see above) were used in the susceptibility test for BBR and dhBBR. The bacterial strains, which belong to different species of bacteria, were collected and identified as described above. The minimum inhibitory concentrations (MICs) of BBR and dhBBR after 24 h were determined through the broth microdilution method according to the CLSI guidelines. BBR and dhBBR were tested at a concentration range of 8 to 512 μg/ml. The MIC was defined as the lowest concentration of an agent that prevents turbidity. The experiment was repeated three times. All of the bacterial strains tested in this study (S. aureus ATCC 29213, E. faecalis ATCC 29212, E. coli ATCC 25922, S. aureus 08-43, S. epidermidis 12-12, E. faecium 13-01, E. faecalis 13-01, E. coli 06-05, K. pneumoniae 13-14, Ps. aeruginosa 13-10, A. baumannii 13-02, E. cloacae 13-12, and P. mirabilis 13-01) were facultative anaerobes, of which S. aureus ATCC 29213, E. faecalis ATCC 29212 and E. coli ATCC 25922 were standard strains from ATCC (USA) and served as quality controls. L. casei ATCC 334, L. acidophilus ATCC 4356, B. longum ATCC 15707, and B. breve ATCC 15700 were also tested in this anti-bacterial experiment. Ampicillin was used as the positive control.

[4] = target: T1, nitroreductase (Escherichia coli, UniProt P38489); experiment: Nitroreductase-mediated BBR reduction, cell-free incubation; assay type: biochemical; settings: BBR with nitroreductase, 37 °C
T1 construct: purchased Sigma-Aldrich Co. (Shanghai, China); host or cells: Escherichia coli
Description: BBR was incubated with nitroreductase in intestinal bacteria cultures. The reaction mixture consisted of BBR (50 μg/ml), an NADPH-regenerating system and nitroreductase (5 μg/ml) in a final volume of 1 ml under the protection of N2. After incubation for 0, 2, 4, 6 and 12 h at 37 °C, the reaction was terminated by the addition of 1 ml of ice-cold acetonitrile. The samples were then extracted with 1 ml of ethyl acetate after adding 1 ml of 0.5 M sodium hydroxide solution. The organic phase was evaporated to dryness under a nitrogen flow in a water bath at 40 °C. The residue was dissolved with 200 μl of the mobile phase for further analysis. 2-Iodosobenzoic acid (2-IBA), a specific inhibitor of nitroreductase, was used to verify the role of bacterial nitroreductase.

[5] = Absorption of BBR and dhBBR in Caco-2 cells; assay type: in vitro ADME; settings: human
Description: (§1) A Caco-2 cell assay was conducted using a method reported previously. […] To determine the rate of drug transport in the apical-to-basolateral direction, 200 μl of the compound working solution was added to the filter well (apical compartment), and 800 μl of HBSS was added to the receiver plate (basolateral compartment). Accordingly, to determine the rate of drug transport in the basolateral-to-apical direction, 800 μl of the compound working solution was added to each well of the receiver plate and 200 μl of HBSS was added to the filter well. The plates were incubated for 30 min at 37 °C with shaking at 150 rpm on a rotary shaker. At the end of the transport period, aliquots of 50 μl were removed directly from the apical and basolateral wells and transferred to wells of new plates. Four volumes of cold methanol containing internal standards were added into each well. The samples were centrifuged at 16,000 g for 15 min. Aliquots of 200 μl of the supernatant were used for the LC-MS/MS analysis.

[6] = tested on: Caco-2 cells; experiment: Absorption of BBR and dhBBR in Caco-2 cells; assay type: in vitro ADME; settings: Caco-2
Description: as §1

[7] = dhBBR-to-BBR reversion in rat small intestine homogenate; assay type: in vitro ADME; settings: 10-min incubation
Description: The rat duodenum, jejunum and ileum were collected separately, washed thoroughly with saline and dried. After being weighed, the tissues were homogenized with saline at a ratio of 1: 2 [w (g) /v (ml)]. DhBBR was dissolved in a mixture of methanol and DMSO at a ratio of 1:1 with a final concentration of 5 mg/ml. Ten microliters of dhBBR (5 mg/ml) was mixed with 1 ml of the homogenates. The samples were then centrifuged at 14,000 g for 5 min, and the supernatants were collected and mixed with an equal volume of ice-cold acetonitrile to terminate the reaction. The samples were centrifuged at 14,000 g for 5 min, and the supernatant was used for the HPLC analysis.

T1 sequence (P38489 whole entry): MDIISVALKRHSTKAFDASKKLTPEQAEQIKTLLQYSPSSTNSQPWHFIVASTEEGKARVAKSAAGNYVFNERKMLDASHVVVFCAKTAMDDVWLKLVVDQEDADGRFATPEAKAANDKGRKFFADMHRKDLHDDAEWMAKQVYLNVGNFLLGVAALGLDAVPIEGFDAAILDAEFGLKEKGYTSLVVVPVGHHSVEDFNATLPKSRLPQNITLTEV

## COc1ccc2c(c1OC)CN1CCc3cc4c(cc3C1=C2)OCO4 [dhBBR, dihydroberberine]
[1]
  incubation time until dhBBR became detectable: ≤ 24 h
[2]
  incubation time until dhBBR became detectable: ≤ 6 h
[3]
  antibacterial effect compared with BBR: even weaker than that of BBR in 5 of the 17 intestinal bacteria strains
[4]
  incubation time after which dhBBR became detectable: 4 h
[5]; Caco-2, pH 7.4, read-out: efflux ratio (ER)
  efflux ratio at 30 min, 5 μM: 1.58
[5]; pH 7.4, Caco-2, 5 μM, 30 min
  Papp A→B at 30 min, 5 μM: 4.51 ×10⁻⁶ cm/s
[6]
  fold Papp (AP-BL) of dhBBR over BBR: 11.9 fold
[7]; duodenum and jejunum homogenate
  dhBBR-to-BBR reversion: almost completely
[7]; ileum homogenate
  dhBBR-to-BBR reversion rate: more than 80%
